These results are taken from patent publication US9527832B2, “Substituted condensed pyrimidine compounds” (GRÜNENTHAL GMBH, priority 2013, dated 2016).

The test has as its target T1, human PDE4B1 (Homo sapiens, UniProt Q07343).
T1 construct: host or cells: Sf9 cells
The test is described as follows: cAMP HTRF assay to determine the activity of hPDE4B1. Format: biochemical. Conditions: for IC50: reported as ranges. A digest of the protocol:
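Sf9-expressed recombinant human PDE4B1 (4.8 U) in Tris-HCl/MgCl2/DTT/Tween 20 buffer pH 7.8, with cAMP at 40 nM final, 30 min at room temperature. Reaction stopped with IBMX 1 mM; remaining cAMP detected by HTRF (665/620 nm ratio). IC50 from eight-point dose-response, n=2.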
On the technique in general: In TR-FRET formats the signal depends on donor and acceptor labels being close together.

Setting [1] is: Percentage inhibition of PDE4B at 1 μM test concentration.
Setting [2] is: dose response measurements with eight concentrations, read-out: IC50.

Like-named read-outs stand apart in the source and are kept apart here.

T1 sequence (Q07343 whole entry): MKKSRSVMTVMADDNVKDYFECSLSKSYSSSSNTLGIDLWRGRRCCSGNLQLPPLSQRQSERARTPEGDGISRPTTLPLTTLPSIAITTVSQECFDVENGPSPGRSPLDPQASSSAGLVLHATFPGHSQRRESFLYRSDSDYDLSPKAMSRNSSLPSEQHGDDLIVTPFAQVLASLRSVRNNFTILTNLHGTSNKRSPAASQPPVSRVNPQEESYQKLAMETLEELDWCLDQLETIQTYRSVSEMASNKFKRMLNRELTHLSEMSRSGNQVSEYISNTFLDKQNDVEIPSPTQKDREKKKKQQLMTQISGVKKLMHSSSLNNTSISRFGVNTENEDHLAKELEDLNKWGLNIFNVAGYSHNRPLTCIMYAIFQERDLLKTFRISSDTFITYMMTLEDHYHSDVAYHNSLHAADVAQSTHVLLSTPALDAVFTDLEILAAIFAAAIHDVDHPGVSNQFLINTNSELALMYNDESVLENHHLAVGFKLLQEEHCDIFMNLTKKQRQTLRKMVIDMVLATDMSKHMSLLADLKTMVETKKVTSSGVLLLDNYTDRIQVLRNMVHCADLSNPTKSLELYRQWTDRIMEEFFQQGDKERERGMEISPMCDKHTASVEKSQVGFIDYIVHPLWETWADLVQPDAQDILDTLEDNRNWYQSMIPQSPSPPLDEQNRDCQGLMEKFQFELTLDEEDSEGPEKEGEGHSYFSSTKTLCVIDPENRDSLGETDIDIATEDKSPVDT

As usually defined, the inhibition is the drop in the measured response relative to a control, in per cent. Usually IC50 stands for the concentration needed to halve the response being measured. Consider `COc1ccc(-c2nc3c(c(N4CCc5ccc(OCC(=O)N(C)C)cc54)n2)CS(=O)(=O)C3)cc1` [Compound No. 2-21, 2-((1-(2-(4-Methoxyphenyl)-6,6-dioxido-5,7-dihydrothieno[3,4-d]pyrimidin-4-yl)indolin-6-yl)oxy)-N,N-dimethylacetamide], for which, under setting [1], the inhibition at 1 µM stood at 88%. For the same molecule, the IC50 under setting [2] was under 100 nM.

For the molecule `CN(C)C(=O)COc1ccc2c(c1)N(c1nc(-c3ccccc3)nc3c1C[S+]([O-])C3)CC2` (stereo not shown) [2-93, N,N-Dimethyl-2-[[1-(6-oxo-2-phenyl-5,7-dihydro-thieno[3,4-d]pyrimidin-4-yl)-2,3-dihydro-1H-indol-6-yl]oxy]-acetamide], the inhibition at 1 µM under setting [1] was found to be 121%. Moreover, the IC50 under setting [2] was under 100 nM.

With `CN(C)C(=O)COc1ccc2c(c1)N(c1nc(-c3ccc(C(N)=O)s3)nc3c1C[S+]([O-])C3)CC2` (stereo not shown) [Compound No. 2-80, 5-(4-(6-(2-(Dimethylamino)-2-oxoethoxy)indolin-1-yl)-6-oxido-5,7-dihydrothieno[3,4-d]pyrimidin-2-yl)thiophene-2-carboxamide], the inhibition at 0.1 µM (Percentage inhibition of PDE4B at 0.1 μM test concentration, read-out: Inhibition [%] (inh. at 0.1 μM)) stood at 101%. Also, under setting [2], the IC50 is under 100 nM.

For the molecule `O=C(COc1ccc2c(c1)N(c1nc(-c3ccc(Cl)s3)nc3c1C[S+]([O-])C3)CC2)N1CCC1` (stereo not shown) [Compound No. 2-122, 1-(Azetidin-1-yl)-2-((1-(2-(5-chlorothiophen-2-yl)-6-oxido-5,7-dihydrothieno[3,4-d]pyrimidin-4-yl)indolin-6-yl)oxy)ethanone], the inhibition at 1 µM under setting [1] worked out at 40%.

Regarding `CN(C)C(=O)COc1ccc2c(c1)N(c1nc(-c3ccc4cccnc4c3)nc3c1C[S+]([O-])C3)CC2` (stereo not shown) [2-149, N,N-Dimethyl-2-[[1-(6-oxo-2-quinolin-7-yl-5,7-dihydro-thieno[3,4-d]pyrimidin-4-yl)-2,3-dihydro-1H-indol-6-yl]oxy]-acetamide], the inhibition at 1 µM under setting [1] turned out to be 92%. In addition, under setting [2], the IC50 is under 100 nM.

Consider `CN(C)C(=O)COc1ccc2c(c1)N(c1nc(-c3ccncc3)nc3c1C[S+]([O-])C3)CC2` (stereo not shown) [Compound No. 2-135, N,N-Dimethyl-2-((1-(6-oxido-2-(pyridin-4-yl)-5,7-dihydrothieno[3,4-d]pyrimidin-4-yl)indolin-6-yl)oxy)acetamide], for which the inhibition at 1 µM under setting [1] was 97%. Further, the IC50 under setting [2] is under 100 nM.

As for `CN(C)C(=O)Cc1ccc2c(c1)CCN2c1nc(-c2ccc(Cl)s2)nc2c1CS(=O)(=O)C2` [Compound No. 3-8, 2-(1-(2-(5-Chlorothiophen-2-yl)-6,6-dioxido-5,7-dihydrothieno[3,4-d]pyrimidin-4-yl)indolin-5-yl)-N,N-dimethylacetamide], under setting [1], the inhibition at 1 µM came out at 32%.

Consider `CCNC(=O)COc1ccc2c(c1)N(c1nc(-c3ccc(Cl)s3)nc3c1CCC3)CC2` [Compound No. 2-68, 2-((1-(2-(5-Chlorothiophen-2-yl)-6,7-dihydro-5H-cyclopenta[d]pyrimidin-4-yl)indolin-6-yl)oxy)-N-ethylacetamide], for which the inhibition at 1 µM under setting [1] stood at 2%.

As usually defined, the Inhibition is the relative decrease from the control value, in per cent. Regarding `O=C(O)Cc1ccc2c(c1)CCN2c1nc(-c2ccc(Cl)s2)nc2c1CS(=O)(=O)C2` [Compound No. 1-22, 2-(1-(2-(5-Chlor-thiophen-2-yl)-6,6-dioxo-5,7-dihydro-thieno[3,4-d]pyrimidin-4-yl)-2,3-dihydro-1H-indol-5-yl)acetic acid], the “Inhibition at 1 μM test concentration [%]” value under setting [1] turned out to be 115%.

As to `O=C(COc1ccc2c(c1)N(c1nc(-c3ccc(Cl)s3)nc3c1CS(=O)(=O)C3)CC2)NCCO` [2-62, 2-((1-(2-(5-Chlorothiophen-2-yl)-6,6-dioxido-5,7-dihydrothieno[3,4-d]pyrimidin-4-yl)indolin-6-yl)oxy)-N-(2-hydroxyethyl)acetamide], the inhibition at 1 µM under setting [1] stood at 91%. Besides, under setting [2], the IC50 is under 100 nM.

Regarding `O=C(O)Cc1ccc2c(c1)CCN2c1nc(-c2cc(Cl)cs2)nc2c1CCC2` [Compound No. 1-18, 2-(1-(2-(4-Chlorothiophen-2-yl)-6,7-dihydro-5H-cyclopenta[d]pyrimidin-4-yl)indolin-5-yl)acetic acid], the inhibition at 1 µM under setting [1] was 92%. Also, the IC50 under setting [2] was under 100 nM.

Consider `NC(=O)COc1ccc2c(c1)N(c1nc(-c3ccc(Cl)s3)nc3c1CCC3)CC2` [Compound No. 2-71, 2-((1-(2-(5-Chlorothiophen-2-yl)-6,7-dihydro-5H-cyclopenta[d]pyrimidin-4-yl)indolin-6-yl)oxy)acetamide], for which the inhibition at 1 µM under setting [1] is 14%.

For the molecule `COc1ccc(-c2nc3c(c(N4C(=O)Cc5cc(CC(=O)O)ccc54)n2)CCC3)cc1Cl` [Compound No. 1-66, 2-(1-(2-(3-Chloro-4-methoxyphenyl)-6,7-dihydro-5H-cyclopenta[d]-pyrimidin-4-yl)-2-oxoindolin-5-yl)acetic acid], the inhibition at 1 µM under setting [1] came to 61%. Besides, under setting [2], the IC50 fell in the range of 100 to 1000 nM.

With `O=C(COc1ccc2c(c1)N(c1nc(-c3ccc(Cl)s3)nc3c1CCC3)CC2)N1CCOCC1` [Compound No. 2-128, 2-((1-(2-(5-Chlorothiophen-2-yl)-6,7-dihydro-5H-cyclopenta[d]pyrimidin-4-yl)indolin-6-yl)oxy)-1-morpholinoethanone], the inhibition at 1 µM under setting [1] worked out at 85%. Further, the IC50 under setting [2] lay within 100 to 1000 nM.

Consider `CN(C)C(=O)COc1ccc2c(c1)N(c1nc(-c3ccc4c(c3)CCO4)nc3c1C[S+]([O-])C3)CC2` (stereo not shown) [2-153, 2-[[1-[2-(2,3-Dihydro-benzofuran-5-yl)-6-oxo-5,7-dihydro-thieno[3,4-d]pyrimidin-4-yl]-2,3-dihydro-1H-indol-6-yl]oxy]-N,N-dimethyl-acetamide], for which, under setting [1], the inhibition at 1 µM came to 97%. Also, under setting [2], the IC50 was under 100 nM.

Turning to `COc1cc(F)ccc1-c1nc2c(c(N3CCc4ccc(OCC(=O)N(C)C)cc43)n1)C[S+]([O-])C2` (stereo not shown) [2-112, 2-[[1-[2-(4-Fluoro-2-methoxy-phenyl)-6-oxo-5,7-dihydro-thieno[3,4-d]pyrimidin-4-yl]-2,3-dihydro-1H-indol-6-yl]oxy]-N,N-dimethyl-acetamide], under setting [1], the inhibition at 1 µM was determined as 64%. The IC50 under setting [2] lay in the range of 100 to 1000 nM.

For `CN(C)C(=O)COc1ccc2c(c1)N(c1nc(-c3ccc(F)c(F)c3)nc3c1C[S+]([O-])C3)CC2` (stereo not shown) [Compound No. 2-40, 2-((1-(2-(3,4-Difluorophenyl)-6-oxido-5,7-dihydrothieno[3,4-d]pyrimidin-4-yl)indolin-6-yl)oxy)-N,N-dimethylacetamide], the inhibition at 1 µM under setting [1] turned out to be 119%. In addition, the IC50 under setting [2] is under 100 nM.

As for `CN(C)C(=O)COc1ccc2c(c1)N(c1nc(-c3ccc(C#N)cc3)nc3c1C[S+]([O-])C3)CC2` (stereo not shown) [2-92, 2-[[1-[2-(4-Cyano-phenyl)-6-oxo-5,7-dihydro-thieno[3,4-d]pyrimidin-4-yl]-2,3-dihydro-1H-indol-6-yl]oxy]-N,N-dimethyl-acetamide], the inhibition at 1 µM under setting [1] was found to be 97%. Further, the IC50 under setting [2] was under 100 nM.

As for `O=C(COc1ccc2c(c1)N(c1nc(-c3ccc(Cl)s3)nc3c1CCC3)CC2)NC1COC1` [Compound No. 2-65, 2-((1-(2-(5-Chlorothiophen-2-yl)-6,7-dihydro-5H-cyclopenta[d]pyrimidin-4-yl)indolin-6-yl)oxy)-N-(oxetan-3-yl)acetamide], the inhibition at 1 µM under setting [1] was found to be 5%.

As to `O=C(COc1ccc2c(c1)N(c1nc(-c3ccc(Cl)s3)nc3c1CS(=O)(=O)C3)CC2)N1CCOCC1` [Compound No. 2-125, 2-((1-(2-(5-Chlorothiophen-2-yl)-6,6-dioxido-5,7-dihydrothieno[3,4-d]pyrimidin-4-yl)indolin-6-yl)oxy)-1-morpholinoethanone], the inhibition at 1 µM under setting [1] turned out to be 85%. Further, under setting [2], the IC50 is under 100 nM.

Turning to `CN(C)C(=O)COc1ccc2c(c1)N(c1nc(-c3ccc(C#N)s3)nc3c1CCC3)CC2` [Compound No. 2-84, 2-((1-(2-(5-Cyanothiophen-2-yl)-6,7-dihydro-5H-cyclopenta[d]pyrimidin-4-yl)indolin-6-yl)oxy)-N,N-dimethylacetamide], the inhibition at 1 µM under setting [1] stood at 91%. Also, the IC50 under setting [2] was under 100 nM.

On to `CN(C)C(=O)COc1ccc2c(c1)N(c1nc(-c3ccc(F)s3)nc3c1CCC3)CC2` [Compound No. 2-46, 2-((1-(2-(5-Fluorothiophen-2-yl)-6,7-dihydro-5H-cyclopenta[d]pyrimidin-4-yl)indolin-6-yl)oxy)-N,N-dimethylacetamide], for which the inhibition at 1 µM under setting [1] turned out to be 94%. Also, the IC50 under setting [2] was under 100 nM.

Take `O=C(COc1ccc2c(c1)N(c1nc(-c3ccc(Cl)s3)nc3c1CCC3)CC2)NCCO` [Compound No. 2-69, 2-((1-(2-(5-Chlorothiophen-2-yl)-6,7-dihydro-5H-cyclopenta[d]pyrimidin-4-yl)indolin-6-yl)oxy)-N-(2-hydroxyethyl)acetamide]: the inhibition at 1 µM under setting [1] is 4%.

`CNC(=O)Cc1ccc2c(c1)CCN2c1nc(-c2ccc(Cl)s2)nc2c1CS(=O)(=O)C2` [Compound No. 3-5, 2-(1-(2-(5-Chlorothiophen-2-yl)-6,6-dioxido-5,7-dihydrothieno[3,4-d]pyrimidin-4-yl)indolin-5-yl)-N-methylacetamide]: the IC50 under setting [2] fell in the range of 100 to 1000 nM.

Consider `CN1CCN(C(=O)COc2ccc3c(c2)N(c2nc(-c4ccc(Cl)s4)nc4c2C[S+]([O-])C4)CC3)CC1` (stereo not shown) [Compound No. 2-117, 2-((1-(2-(5-Chlorothiophen-2-yl)-6-oxido-5,7-dihydrothieno[3,4-d]pyrimidin-4-yl)indolin-6-yl)oxy)-1-(4-methylpiperazin-1-yl)ethanone], for which, under setting [1], the inhibition at 1 µM was 88%.

For the setting “IC50, dose response measurements with eight concentrations”, `CN1CCN(C(=O)COc2ccc3c(c2)N(c2nc(-c4ccc(Cl)s4)nc4c2CS(=O)(=O)C4)CC3)CC1` [Compound No. 2-123, 2-((1-(2-(5-Chlorothiophen-2-yl)-6,6-dioxido-5,7-dihydrothieno[3,4-d]pyrimidin-4-yl)indolin-6-yl)oxy)-1-(4-methylpiperazin-1-yl) ethanone] registered an IC50 of under 100 nM. Moreover, under setting [1], the inhibition at 1 µM came to 95%.
